Source: PubChem BioAssay AID1919013 (Molecular Pharmacology Branch, DTP, NCI, 2023)
Values belong to the molecule of their own block, whether it stands above or below them.

System: LG0703-F498-PDC complex spheroid growth
Experiment: Anticancer human tumor LG0703-F498-PDC patient-derived lung adenocarcinoma cell line growth inhibition [AhR]
Details: for IC50: curve of first compound; for viability, T/C: stronger effect = lower value
How it was run: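 Agents were dosed in half-log steps down from roughly clinical Cmax, or from 10 microM where Cmax was unknown, alone and with AhR antagonists. Read-out: percent test/control growth of tumor spheroids containing HUVEC and MSC stromal cells.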

[1] = second compound 0.1 µM, first compound 0.0316 µM
[2] = second compound 0.1 µM, first compound 0.1 µM
[3] = second compound 0.1 µM, first compound 0.316 µM
[4] = second compound 0.1 µM, first compound 1 µM
[5] = second compound 0.316 µM, first compound 0.0316 µM
[6] = second compound 0.316 µM, first compound 0.1 µM
[7] = second compound 0.316 µM, first compound 0.316 µM
[8] = second compound 0.316 µM, first compound 1 µM
[9] = second compound 1 µM, first compound 0.0316 µM
[10] = second compound 1 µM, first compound 0.1 µM
[11] = second compound 1 µM, first compound 0.316 µM
[12] = second compound 1 µM, first compound 1 µM
[13] = second compound 3.16 µM, first compound 0.0316 µM
[14] = second compound 3.16 µM, first compound 0.1 µM
[15] = second compound 3.16 µM, first compound 0.316 µM
[16] = second compound 3.16 µM, first compound 1 µM
[17] = second compound 10 µM, first compound 0.0316 µM
[18] = second compound 10 µM, first compound 0.1 µM
[19] = second compound 10 µM, first compound 0.316 µM
[20] = second compound 10 µM, first compound 1 µM
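Note: luminescence taken as a proxy for viable cell amount.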
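Throughout, for viability, T/C: percent of DMSO vehicle control where 100% means growth equal to vehicle.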

- IC50 (second compound 0.1 µM): 666 nM
- IC50 (second compound 0.316 µM): 465 nM
- IC50 (second compound 1 µM): 602 nM
- IC50 (second compound 3.16 µM): 416 nM
- IC50 (second compound 10 µM): 243 nM
Compound: CC1COCCN1c1cc(-c2ccnn2C)c2ccnc(-c3ccn[nH]3)c2n1 (stereo not given) + CC(CO)NC(=O)c1cc(-c2ccc(Cl)cc2)nn(-c2cnn(C)c2)c1=O
- viability, T/C (second compound 0.1 µM, first compound 0.00316 µM): 107%
- viability, T/C (second compound 0.1 µM, first compound 0.01 µM): 104%
- viability, T/C [1]: 93.4%
- viability, T/C [2]: 70.6%
- viability, T/C [3]: 66.2%
- viability, T/C [4]: 42.5%
- viability, T/C (second compound 0.316 µM, first compound 0.00316 µM): 93.2%
- viability, T/C (second compound 0.316 µM, first compound 0.01 µM): 110%
- viability, T/C [5]: 96.6%
- viability, T/C [6]: 72.5%
- viability, T/C [7]: 55.8%
- viability, T/C [8]: 43.4%
- viability, T/C (second compound 1 µM, first compound 0.00316 µM): 108%
- viability, T/C (second compound 1 µM, first compound 0.01 µM): 102%
- viability, T/C [9]: 90.7%
- viability, T/C [10]: 82.4%
- viability, T/C [11]: 58.1%
- viability, T/C [12]: 42.5%
- viability, T/C (second compound 3.16 µM, first compound 0.00316 µM): 87.5%
- viability, T/C (second compound 3.16 µM, first compound 0.01 µM): 90.5%
- viability, T/C [13]: 78.2%
- viability, T/C [14]: 67.2%
- viability, T/C [15]: 55.1%
- viability, T/C [16]: 37.9%
- viability, T/C (second compound 10 µM, first compound 0.00316 µM): 101%
- viability, T/C (second compound 10 µM, first compound 0.01 µM): 90.1%
- viability, T/C [17]: 82.7%
- viability, T/C [18]: 60.8%
- viability, T/C [19]: 47.1%
- viability, T/C [20]: 32.6%

- IC50 (second compound 0.1 µM): > 10000 nM
- IC50 (second compound 0.316 µM): > 10000 nM
- IC50 (second compound 1 µM): > 10000 nM
- IC50 (second compound 3.16 µM): > 10000 nM
- IC50 (second compound 10 µM): > 10000 nM
Compound: CC1COCCN1c1cc(C2(S(C)(=N)=O)CC2)nc(-c2ccnc3[nH]ccc23)n1 (stereo not given) + CC(CO)NC(=O)c1cc(-c2ccc(Cl)cc2)nn(-c2cnn(C)c2)c1=O
- viability, T/C [1]: 101%
- viability, T/C [2]: 91.6%
- viability, T/C [3]: 89.7%
- viability, T/C [4]: 99.3%
- viability, T/C (second compound 0.1 µM, first compound 3.16 µM): 79.1%
- viability, T/C (second compound 0.1 µM, first compound 10 µM): 63.4%
- viability, T/C [5]: 92.6%
- viability, T/C [6]: 91.7%
- viability, T/C [7]: 93.7%
- viability, T/C [8]: 90.2%
- viability, T/C (second compound 0.316 µM, first compound 3.16 µM): 86%
- viability, T/C (second compound 0.316 µM, first compound 10 µM): 53.1%
- viability, T/C [9]: 97.8%
- viability, T/C [10]: 92.8%
- viability, T/C [11]: 88.3%
- viability, T/C [12]: 91%
- viability, T/C (second compound 1 µM, first compound 3.16 µM): 68.8%
- viability, T/C (second compound 1 µM, first compound 10 µM): 60%
- viability, T/C [13]: 89.9%
- viability, T/C [14]: 89%
- viability, T/C [15]: 95.8%
- viability, T/C [16]: 82.3%
- viability, T/C (second compound 3.16 µM, first compound 3.16 µM): 79.1%
- viability, T/C (second compound 3.16 µM, first compound 10 µM): 59.1%
- viability, T/C [17]: 76.1%
- viability, T/C [18]: 95.3%
- viability, T/C [19]: 73.8%
- viability, T/C [20]: 83.7%
- viability, T/C (second compound 10 µM, first compound 3.16 µM): 59.6%
- viability, T/C (second compound 10 µM, first compound 10 µM): 51.3%
